Common to all, as to format: cell-based
In experiment [1] the test system is Enterococcus faecium ATCC 700221 (VRE). The experiment in a line: Broth microdilution MIC, E. faecium ATCC 700221 (VRE). Also on record: MIC E. faecium ATCC 700221 (VRE): unit: ug/mL. The settings on record: broth microdilution, 37° C., 20 hours; for MIC: Enterococcus faecium, read-out: MIC E. faecium ATCC 700221 (VRE). The procedure, abridged: (§1)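 Broth microdilution in strain-specific test medium with ~5.0×10^5 cfu/ml inoculum, 1% DMSO and two-fold compound dilutions from 64 to 0.0625 μg/ml. Plates were held 20 hours at 37° C in ambient air. S. pneumoniae colonies were grown beforehand on blood agar in 5% CO2.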
On the technique in general: Dilution methods test growth across graded concentrations, often in twofold steps.

The subject of experiment [2] is Bacillus subtilis ATCC 6633. The experiment in a line: Broth microdilution MIC, B. subtilis ATCC 6633. The settings on record: ATCC6633, broth microdilution, 37° C., 20 hours, read-out: MIC B. subtilis ATCC 6633. The procedure, abridged:
as §1

The test system of experiment [3] is Streptococcus pneumoniae ATCC 49619. As to the kind of experiment: Broth microdilution MIC, S. pneumoniae ATCC 49619. The conditions noted are these: ATCC49619, broth microdilution, 37° C., 20 hours, read-out: MIC S. pneumoniae ATCC 49619. The method, boiled down: as §1
Experiment [4] concerns Staphylococcus aureus ATCC 29213 (MSSA). The experiment in a line: Broth microdilution MIC, S. aureus ATCC 29213 (MSSA). The conditions noted are these: broth microdilution, 37° C., 20 hours, read-out: MIC S. aureus ATCC 29213 (MSSA). The method, boiled down: as §1
The test system of experiment [5] is Enterococcus faecalis ATCC 29212. The experiment in a line: Broth microdilution MIC, E. faecalis ATCC 29212. The settings on record: ATCC29212, broth microdilution, 37° C., 20 hours, read-out: MIC E. faecalis ATCC 29212. The method, boiled down:
as §1

Experiment [6] has as its system Escherichia coli ATCC 25922. As to the kind of experiment: Broth microdilution MIC, E. coli ATCC 25922 (MHIIB w & w/o 4 mM EDTA). The settings on record: for MIC: Escherichia coli, ATCC25922, without EDTA, read-out: MIC E. coli ATCC 25922. The procedure, abridged: as §1
Experiment [7] has as its system Staphylococcus aureus NRS384 (MRSA). As to the kind of experiment: Broth microdilution MIC, S. aureus NRS384 (MRSA). Also on record: MIC NRS 384 (MRSA): unit not given here. The settings on record: broth microdilution, 37° C., 20 hours; for MIC: Staphylococcus aureus, read-out: MIC NRS 384 (MRSA). The procedure, abridged:
as §1

Where [8] appears, read: broth microdilution, 37° C., 20 hours.
[9] abbreviates: with 4 mM EDTA, broth microdilution, 37° C., 20 hours.

The term MIC denotes the smallest concentration in the dilution series that meets the test's criterion for growth inhibition.

SMILES strings stand for the structures. In brackets after ≈: the same amount, converted by molar mass. Read-outs that look alike come from different tables or passages of the source.

Turning to `Cl.O=c1[nH]c(NCc2ccc(Cl)c(Cl)c2)nc2cnn(CCOc3cccnc3)c12` [Compound 170, 5-((3,4-dichlorobenzyl)amino)-1-(2-(pyridin-3-yloxy)ethyl)-1H-pyrazolo[4,3-d]pyrimidin-7(6H)-one hydrochloride], in experiment [1], the “MIC E. faecium ATCC 700221 (VRE)” value is listed as 4/1. For the same molecule, the MIC in experiment [2] was 1 µg/mL; in experiment [3] it was 8 µg/mL; in experiment [4] it was 4 µg/mL; in experiment [5], 4 µg/mL; in experiment [6] (setting [8]) it was greater than 64 µg/mL. For the same molecule, the “MIC E. coli ATCC 25922 + 4 mM EDTA” value in experiment [6] (setting [9]) is greater than 64. ug/ml. The “MIC NRS 384 (MRSA)” value in experiment [7] is reported as 2/2.

As for `Cn1ncc2nc(NCc3cc[nH]n3)[nH]c(=O)c21` [Compound 16, 5-(((1H-pyrazol-3-yl)methyl)amino)-1-methyl-1H-pyrazolo[4,3-d]pyrimidin-7(6H)-one], the MIC in experiment [1], in experiment [2], in experiment [3], in experiment [4], in experiment [5] and in experiment [6] (setting [8]) was greater than 64 µg/mL throughout. Moreover, the MIC in experiment [7] was greater than 64 µg/mL. Moreover, in experiment [6] (setting [9]), the “MIC E. coli ATCC 25922 + 4 mM EDTA” value was greater than 64 µg/mL.

`O=c1[nH]c(NCc2ccc(Cl)c(Cl)c2)nc2cnn(CCCO)c12` [Compound 123, 5-((3,4-Dichlorobenzyl)amino)-1-(3-hydroxypropyl)-1H-pyrazolo[4,3-d]pyrimidin-7(6H)-one]: the MIC is 1 µg/mL (≈ 2.72 µM) in experiment [1]; 0.5 µg/mL (≈ 1.36 µM) in experiment [2]; 2 µg/mL (≈ 5.43 µM) in experiment [3]; 2 µg/mL (≈ 5.43 µM) in experiment [4]; 4 µg/mL (≈ 10.9 µM) in experiment [5]; greater than 64 µg/mL in experiment [6] (setting [8]). In addition, the MIC in experiment [7] is 2 µg/mL (≈ 5.43 µM). The “MIC E. coli ATCC 25922 + 4 mM EDTA” value in experiment [6] (setting [9]) is greater than 64 µg/mL.

For the molecule `Cl.O=C(c1cccnc1)N1CCC(n2ncc3nc(NCc4ccc(Cl)c(Cl)c4)[nH]c(=O)c32)C1` (centres unmarked) [Compound 258, 5-((3,4-Dichlorobenzyl)amino)-1-(1-nicotinoylpyrrolidin-3-yl)-1H-pyrazolo[4,3-d]pyrimidin-7(6H)-one], the MIC is 4 µg/mL in experiment [1]; 2 µg/mL in experiment [2]; 4 µg/mL in experiment [3]; 8 µg/mL in experiment [4]; 8 µg/mL in experiment [5]; greater than 64 µg/mL in experiment [6] (setting [8]). Also, the MIC in experiment [7] amounted to 8 µg/mL. In experiment [6] (setting [9]), the “MIC E. coli ATCC 25922 + 4 mM EDTA” value is greater than 64 µg/mL.

With `N.N.O=c1[nH]c(NCc2ccc(Cl)c(Cl)c2)nc2cnn(CCOCCOCOP(=O)(O)O)c12` [Compound 299, ammonium (2-(2-(5-((3,4-dichlorobenzyl)amino)-7-oxo-6,7-dihydro-1H-pyrazolo[4,3-d]pyrimidin-1-yl)ethoxy)ethoxy)methyl phosphate], the MIC in experiment [1] was 16 µg/mL; in experiment [2], 64 µg/mL; in experiment [3] it was 16 µg/mL; in experiment [4], greater than 64 µg/mL; in experiment [5], greater than 64 µg/mL; in experiment [6] (setting [8]) it was greater than 64 µg/mL. In addition, the MIC in experiment [7] (S. aureus NRS 384) is greater than 64 µg/mL. Further, in experiment [6] (ATCC25922, 20 h), the “MIC E. coli ATCC 25922 + 4 mM EDTA” value was greater than 64 µg/mL.

With `O=C(O)CCn1cc2nc(NCc3ccc(Cl)c(Cl)c3)[nH]c(=O)c2n1` [Compound 230, 3-(5-((3,4-Dichlorobenzyl)amino)-7-oxo-6,7-dihydro-2H-pyrazolo[4,3-d]pyrimidin-2-yl)propanoic acid], the MIC in experiment [1] was 64 µg/mL (≈ 167 µM); in experiment [2], 64 µg/mL (≈ 167 µM); in experiment [3] it was 32 µg/mL (≈ 83.7 µM); in experiment [4], greater than 64 µg/mL; in experiment [5], 64 µg/mL (≈ 167 µM); in experiment [6] (setting [8]), greater than 64 µg/mL. The MIC in experiment [7] was 64 µg/mL (≈ 167 µM). The “MIC E. coli ATCC 25922 + 4 mM EDTA” value in experiment [6] (setting [9]) stood at 64 µg/mL.

As to `O=c1[nH]c(NCc2ccc(Cl)c(Cl)c2)nc2cnn(CCOC3CCS(=O)(=O)CC3)c12` [Compound 188, 5-((3,4-dichlorobenzyl)amino)-1-(2-((1,1-dioxidotetrahydro-2H-thiopyran-4-yl)oxy)ethyl)-1H-pyrazolo[4,3-d]pyrimidin-7(6H)-one], the MIC is 4 µg/mL (≈ 8.22 µM) in experiment [1]; 4 µg/mL (≈ 8.22 µM) in experiment [2]; 8 µg/mL (≈ 16.4 µM) in experiment [3]; 16 µg/mL (≈ 32.9 µM) in experiment [4]; 8 µg/mL (≈ 16.4 µM) in experiment [5]; greater than 64 µg/mL in experiment [6] (setting [8]). For the same molecule, the MIC in experiment [7] was found to be 16 µg/mL (≈ 32.9 µM). Also, in experiment [6] (setting [9]), the “MIC E. coli ATCC 25922 + 4 mM EDTA” value is greater than 64 µg/mL.
